Laboratory results: patent US4831049A, “Pyrrolizidine compounds, and their use as antiarrhythmic agents” (Suntory Limited, priority 1984, dated 1989)

Tests used:
[1] = system: ventricular flutter and fibrillation; experiment: Antiarrhythmic activity: prevention of ventricular flutter and fibrillation in mice caused to inhale chloroform; assay type: in vivo, male mice of ddy strain; conditions: for ED50: Mus musculus, sc, 0.5 h, subcutaneous, 30 minutes before chloroform inhalation, Litchfield and Wilcoxon, 95% confidence limit in parentheses
Description: In accordance with the method described by J. W. Lawson [Journal of pharmacology and Experimental Therapeutics, 160, 22, (1966)], male mice of ddy strain were caused to inhale chloroform and when respiration was arrested, electrocardiography was performed to observe the ventricular flutter and fibrillation. These abnormalities of the cardiac ventricle are prevented if an antiarrhythmic agent is previously administered. Several different doses of the compound of this invention were subctaneously administered to mice in group of 29 to 40 animals and, after an interval of 30 minutes, the animals were caused to inhale chloroform. The prophylactic effects of these doses on ventricular flutter and fibrillation were estimated and the 50% effective dose (ED50) and its 95% confidence limit were calculated by the method of Litchfield and Wilcoxon [Journal of Pharmacology and Experimental Therapeutics 96, 99, (1949)].

[2] = 50% lethal dose (LD50) by the up and down method; therapeutic index; assay type: in vivo; conditions: mouse, in vivo; male mice, bodyweight 18 to 22 g; up and down method
[3] = system: male mice; experiment: as above; assay type: in vivo; conditions: for Therapeutic index: ratio of LD50 to ED50

For `Cc1ccc(NC(=O)C(C)C23CCCN2CCC3)cc1` (stereo not drawn), the ED50 [1] was 115 mg/kg, the LD50 [2] was 400 mg/kg and the Therapeutic index [3] was 3.4.

`CCC(C(=O)Nc1c(C)cccc1C)C12CCCN1CCC2` (stereo not drawn) showed an ED50 [1] of 8.5 mg/kg, an LD50 [2] of 26 mg/kg and a Therapeutic index [3] of 3.1.

`Cc1cccc(C)c1NC(=O)C(c1ccccc1)C12CCCN1CCC2` (stereo not drawn) gave an ED50 [1] of 3.1 mg/kg, an LD50 [2] of 22 mg/kg and a Therapeutic index [3] of 7.1.

In the case of `Cc1cccc(C)c1NC(=O)[C@H](C)C12CCCN1CCC2` [(2R)(-)SUN3341, N-(2,6-dimethylphenyl)-2-(8-pyrrolizidine)propionamide], the ED50 [1] is reported as 2.6 mg/kg, the “antiarrhythmic activity relative to the racemic compound” value ([1]; versus racemic compound [(±)-compound]) is reported as “approximately 9 times” and the LD50 [2] is reported as 67.6 mg/kg. The “toxicity relative to the racemic compound” value ([3]; in words, versus racemic compound) was “comparable to the racemic compound in toxicity”, the Therapeutic index [3] was 26.0 and the “therapeutic index, in words” value ([3]; versus racemic compound) was “remarkably improved therapeutic index”.

With `Cc1cccc(C)c1NC(=O)[C@@H](C)C12CCCN1CCC2` [(2S)(+)-SUN3341, N-(2,6-dimethylphenyl)-2-(8-pyrrolizidine)propionamide] the ED50 [1] was 24 mg/kg, the LD50 [2] was 79.3 mg/kg and the Therapeutic index [3] was 3.3.

Molecule `Cc1cccc(C)c1NC(=O)C(C)C12CCCN1CCC2` (stereo not drawn) [N-(2,6-dimethylphenyl)-2-(8-pyrrolizidine)propionamide] has an ED50 [1] of 23 mg/kg, an LD50 [2] of 92.1 mg/kg and a Therapeutic index [3] of 4.0.
